Converted amounts (≈) assume the structure as drawn.
Assays:
[1] = test system: Pseudomonas aeruginosa; assay: Antimicrobial activity against Pseudomonas aeruginosa isolate 968 by broth microdilution method; format: functional
[2] = fT>MIC in Pseudomonas aeruginosa selected at 4 ug/ml MIC infected human at 2 g, iv administered as 4 hrs infusion every 8 hrs; format: functional
[3] = fT>MIC in Pseudomonas aeruginosa selected at 16 ug/ml MIC infected human at 2 g, iv administered as 4 hrs infusion every 8 hrs; format: functional
[4] = test system: Pseudomonas aeruginosa; assay: Antimicrobial activity against Pseudomonas aeruginosa selected at MIC […] to […] ug/ml infected ICR mouse assessed as reduction in bacterial load at 1g, sc administered 2 hrs post infection every 8 hrs; format: functional
[5] = test system: Homo sapiens; assay: fCmax in human at 2 g, iv administered as 4 hrs infusion every 8 hrs; format: ADME, organism-based; conditions: in vivo
[6] = test system: Pseudomonas aeruginosa; assay: Antimicrobial activity against Pseudomonas aeruginosa isolate 878 by broth microdilution method; format: functional
[7] = fT>MIC in Pseudomonas aeruginosa selected at 32 ug/ml MIC infected ICR mouse at 1 g, sc administered 2 hrs post infection every 8 hrs; format: functional
[8] = fT>MIC in Pseudomonas aeruginosa selected at 4 ug/ml MIC infected human at 1 g, iv administered as 4 hrs infusion every 8 hrs; format: functional
[9] = fT>MIC in Pseudomonas aeruginosa selected at 8 ug/ml MIC infected human at 2 g, iv administered as 4 hrs infusion every 8 hrs; format: functional
[10] = fT>MIC in Pseudomonas aeruginosa selected at 4 ug/ml MIC infected ICR mouse at 2 g, sc administered 2 hrs post infection every 8 hrs; format: functional
[11] = test system: Pseudomonas aeruginosa; assay: Antimicrobial activity against Pseudomonas aeruginosa isolate 1050 by broth microdilution method; format: functional
[12] = test system: Mus musculus; assay: fAUC in ICR mouse at 2 g, sc administered 2 hrs post infection every 8 hrs; format: ADME, organism-based; conditions: in vivo
[13] = fT>MIC in Pseudomonas aeruginosa selected at 32 ug/ml MIC infected human at 1 g, iv administered as 4 hrs infusion every 8 hrs; format: functional
[14] = fT>MIC in Pseudomonas aeruginosa selected at 16 ug/ml MIC infected ICR mouse at 1 g, sc administered 2 hrs post infection every 8 hrs; format: functional
[15] = test system: Mus musculus; assay: fCmax in ICR mouse at 1 g, sc administered 2 hrs post infection every 8 hrs; format: ADME, organism-based; conditions: in vivo
[16] = test system: Homo sapiens; assay: fAUC in human at 1 g, iv administered as 4 hrs infusion every 8 hrs; format: ADME, organism-based; conditions: in vivo
[17] = test system: Pseudomonas aeruginosa; assay: Antimicrobial activity against Pseudomonas aeruginosa isolate 944 by broth microdilution method; format: functional
[18] = fT>MIC in Pseudomonas aeruginosa selected at 8 ug/ml MIC infected human at 1 g, iv administered as 4 hrs infusion every 8 hrs; format: functional
[19] = test system: Pseudomonas aeruginosa; assay: Antimicrobial activity against Pseudomonas aeruginosa isolate 1095 by broth microdilution method; format: functional
[20] = test system: Homo sapiens; assay: fAUC in human at 2 g, iv administered as 4 hrs infusion every 8 hrs; format: ADME, organism-based; conditions: in vivo
[21] = fT>MIC in Pseudomonas aeruginosa selected at 8 ug/ml MIC infected ICR mouse at 2 g, sc administered 2 hrs post infection every 8 hrs; format: functional
[22] = fT>MIC in Pseudomonas aeruginosa selected at 16 ug/ml MIC infected human at 1 g, iv administered as 4 hrs infusion every 8 hrs; format: functional
[23] = test system: Pseudomonas aeruginosa; assay: Antimicrobial activity against Pseudomonas aeruginosa isolate 1080 by broth microdilution method; format: functional
[24] = test system: Pseudomonas aeruginosa; assay: Antimicrobial activity against Pseudomonas aeruginosa isolate 896 by broth microdilution method; format: functional
[25] = test system: Homo sapiens; assay: fCmax in human at 1 g, iv administered as 4 hrs infusion every 8 hrs; format: ADME, organism-based; conditions: in vivo
[26] = test system: Pseudomonas aeruginosa; assay: Antimicrobial activity against Pseudomonas aeruginosa selected at MIC […] to […] ug/ml infected ICR mouse assessed as reduction in bacterial load at 2g, sc administered 2 hrs post infection every 8 hrs; format: functional
[27] = fT>MIC in Pseudomonas aeruginosa selected at 2 ug/ml MIC infected human at 2 g, iv administered as 4 hrs infusion every 8 hrs; format: functional
[28] = test system: Pseudomonas aeruginosa; assay: Antimicrobial activity against Pseudomonas aeruginosa isolate 22 by broth microdilution method; format: functional
[29] = test system: Pseudomonas aeruginosa; assay: Antimicrobial activity against Pseudomonas aeruginosa isolate 913 by broth microdilution method; format: functional
[30] = test system: Pseudomonas aeruginosa; assay: Antimicrobial activity against Pseudomonas aeruginosa isolate 971 by broth microdilution method; format: functional
[31] = fT>MIC in Pseudomonas aeruginosa selected at 32 ug/ml MIC infected human at 2 g, iv administered as 4 hrs infusion every 8 hrs; format: functional
[32] = fT>MIC in Pseudomonas aeruginosa selected at 2 ug/ml MIC infected human at 1 g, iv administered as 4 hrs infusion every 8 hrs; format: functional
[33] = test system: Pseudomonas aeruginosa; assay: Antimicrobial activity against Pseudomonas aeruginosa isolate 1060 by broth microdilution method; format: functional
[34] = test system: Mus musculus; assay: fCmax in ICR mouse at 2 g, sc administered 2 hrs post infection every 8 hrs; format: ADME, organism-based; conditions: in vivo
[35] = fT>MIC in Pseudomonas aeruginosa selected at 8 ug/ml MIC infected ICR mouse at 1 g, sc administered 2 hrs post infection every 8 hrs; format: functional
[36] = fT>MIC in Pseudomonas aeruginosa selected at 16 ug/ml MIC infected ICR mouse at 2 g, sc administered 2 hrs post infection every 8 hrs; format: functional
[37] = test system: Pseudomonas aeruginosa; assay: Antimicrobial activity against Pseudomonas aeruginosa isolate 927 by broth microdilution method; format: functional
[38] = test system: Pseudomonas aeruginosa; assay: Antimicrobial activity against Pseudomonas aeruginosa isolate 1006 by broth microdilution method; format: functional
[39] = fT>MIC in Pseudomonas aeruginosa selected at 2 ug/ml MIC infected ICR mouse at 1 g, sc administered 2 hrs post infection every 8 hrs; format: functional
[40] = test system: Pseudomonas aeruginosa; assay: Antimicrobial activity against Pseudomonas aeruginosa isolate 821 by broth microdilution method; format: functional
[41] = test system: Pseudomonas aeruginosa; assay: Antimicrobial activity against Pseudomonas aeruginosa isolate 856 by broth microdilution method; format: functional
[42] = test system: Pseudomonas aeruginosa; assay: Antimicrobial activity against Pseudomonas aeruginosa isolate 1036 by broth microdilution method; format: functional
[43] = test system: Pseudomonas aeruginosa; assay: Antimicrobial activity against Pseudomonas aeruginosa isolate 1093 by broth microdilution method; format: functional
[44] = fT>MIC in Pseudomonas aeruginosa selected at 2 ug/ml MIC infected ICR mouse at 2 g, sc administered 2 hrs post infection every 8 hrs; format: functional
[45] = test system: Pseudomonas aeruginosa; assay: Antimicrobial activity against Pseudomonas aeruginosa isolate 988 by broth microdilution method; format: functional
[46] = fT>MIC in Pseudomonas aeruginosa selected at 32 ug/ml MIC infected ICR mouse at 2 g, sc administered 2 hrs post infection every 8 hrs; format: functional
[47] = fT>MIC in Pseudomonas aeruginosa selected at 4 ug/ml MIC infected ICR mouse at 1 g, sc administered 2 hrs post infection every 8 hrs; format: functional
[48] = test system: Mus musculus; assay: fAUC in ICR mouse at 1 g, sc administered 2 hrs post infection every 8 hrs; format: ADME, organism-based; conditions: in vivo

**Q.** For C[C@@H](O)[C@H]1C(=O)N2C(C(=O)O)=C(S[C@@H]3CN[C@H](CNS(N)(=O)=O)C3)[C@H](C)[C@H]12 [DORIPENEM], which MIC [1] is on record?
**A.** Its MIC is 16 µg/mL (≈ 38 µM).

**Q.** What about the “fT>MIC” value [2] of the same compound?
**A.** The value was 80%.

**Q.** What about the “fT>MIC” value [3] of the same compound?
**A.** The value was 50%.

**Q.** What about the log10cfu [4] of the same compound?
**A.** The log10cfu was “>=2”.

**Q.** What about the fCmax [5] of the same compound?
**A.** Its fCmax is 31.2 µg/mL.

**Q.** And the MIC [6]?
**A.** Its MIC is 8 µg/mL (≈ 19 µM).

**Q.** What about the “fT>MIC” value [7] of the same compound?
**A.** Its value is 0%.

**Q.** What about the “fT>MIC” value [8] of the same compound?
**A.** The value was 65%.

**Q.** What about the “fT>MIC” value [9] of the same compound?
**A.** The value was 65%.

**Q.** And the “fT>MIC” value [10]?
**A.** The value was 82.5%.

**Q.** What about the MIC [11] of the same compound?
**A.** The MIC was 4 µg/mL (≈ 9.51 µM).

**Q.** What about the fAUC [12] of the same compound?
**A.** The fAUC was 137100 ng·h/mL.

**Q.** What about the “fT>MIC” value [13] of the same compound?
**A.** Its value is 0%.

**Q.** What about the “fT>MIC” value [14] of the same compound?
**A.** Its value is 0%.

**Q.** And the fCmax [15]?
**A.** The fCmax was 15.9 µg/mL.

**Q.** What about the fAUC [16] of the same compound?
**A.** Its fAUC is 64700 ng·h/mL.

**Q.** What about the MIC [17] of the same compound?
**A.** Its MIC is 4 µg/mL (≈ 9.51 µM).

**Q.** And the “fT>MIC” value [18]?
**A.** The value was 50%.

**Q.** And the MIC [19]?
**A.** The MIC was 4 µg/mL (≈ 9.51 µM).

**Q.** What about the fAUC [20] of the same compound?
**A.** Its fAUC is 129300 ng·h/mL.

**Q.** What about the “fT>MIC” value [21] of the same compound?
**A.** The value was 70%.

**Q.** What about the “fT>MIC” value [22] of the same compound?
**A.** Its value is 0%.

**Q.** What about the MIC [23] of the same compound?
**A.** Its MIC is 32 µg/mL (≈ 76.1 µM).

**Q.** And the MIC [24]?
**A.** The MIC was 8 µg/mL (≈ 19 µM).

**Q.** What about the fCmax [25] of the same compound?
**A.** Its fCmax is 15.6 µg/mL.

**Q.** And the log10cfu [26]?
**A.** The log10cfu was “>=2”.

**Q.** What about the “fT>MIC” value [27] of the same compound?
**A.** Its value is 95%.

**Q.** And the MIC [28]?
**A.** Its MIC is 8 µg/mL (≈ 19 µM).

**Q.** What about the MIC [29] of the same compound?
**A.** The MIC was 16 µg/mL (≈ 38 µM).

**Q.** And the MIC [30]?
**A.** Its MIC is 16 µg/mL (≈ 38 µM).

**Q.** And the “fT>MIC” value [31]?
**A.** The value was 0%.

**Q.** What about the “fT>MIC” value [32] of the same compound?
**A.** Its value is 80%.

**Q.** And the MIC [33]?
**A.** Its MIC is 4 µg/mL (≈ 9.51 µM).

**Q.** And the fCmax [34]?
**A.** The fCmax was 31.9 µg/mL.

**Q.** And the “fT>MIC” value [35]?
**A.** The value was 52.5%.

**Q.** And the “fT>MIC” value [36]?
**A.** Its value is 52.5%.

**Q.** And the MIC [37]?
**A.** The MIC was 16 µg/mL (≈ 38 µM).

**Q.** And the MIC [38]?
**A.** The MIC was 8 µg/mL (≈ 19 µM).

**Q.** And the “fT>MIC” value [39]?
**A.** The value was 82.5%.

**Q.** And the MIC [40]?
**A.** The MIC was 32 µg/mL (≈ 76.1 µM).

**Q.** And the MIC [41]?
**A.** The MIC was 16 µg/mL (≈ 38 µM).

**Q.** And the MIC [42]?
**A.** The MIC was 2 µg/mL (≈ 4.76 µM).

**Q.** What about the MIC [43] of the same compound?
**A.** The MIC was 32 µg/mL (≈ 76.1 µM).

**Q.** What about the “fT>MIC” value [44] of the same compound?
**A.** Its value is 95%.

**Q.** And the MIC [45]?
**A.** The MIC was 8 µg/mL (≈ 19 µM).

**Q.** And the “fT>MIC” value [46]?
**A.** Its value is 0%.

**Q.** What about the “fT>MIC” value [47] of the same compound?
**A.** Its value is 70%.

**Q.** What about the fAUC [48] of the same compound?
**A.** The fAUC was 68600 ng·h/mL.

**Q.** What does the source list for C[C@@H](O)[C@H]1C(=O)N2C(C(=O)O)=C(S[C@@H]3CN[C@H](C(=O)N(C)C)C3)[C@H](C)[C@H]12 [MEROPENEM]?
**A.** MIC [1]: ≥ 32 µg/mL; MIC [6]: ≥ 32 µg/mL; MIC [11]: ≥ 32 µg/mL; MIC [17]: 12 µg/mL (≈ 31.3 µM); MIC [19]: 4 µg/mL (≈ 10.4 µM); MIC [23]: ≥ 32 µg/mL; MIC [24]: 12 µg/mL (≈ 31.3 µM); MIC [28]: 16 µg/mL (≈ 41.7 µM); MIC [29]: ≥ 32 µg/mL; MIC [30]: ≥ 32 µg/mL; MIC [33]: 4 µg/mL (≈ 10.4 µM); MIC [37]: ≥ 32 µg/mL; MIC [38]: ≥ 32 µg/mL; MIC [40]: ≥ 32 µg/mL; MIC [41]: ≥ 32 µg/mL; MIC [42]: 4 µg/mL (≈ 10.4 µM); MIC [43]: ≥ 32 µg/mL; MIC [45]: 16 µg/mL (≈ 41.7 µM)

From ChEMBL document CHEMBL1649285, “In vivo efficacy of 1- and 2-gram human simulated prolonged infusions of doripenem against Pseudomonas aeruginosa” (Antimicrob Agents Chemother, 2009)
